As a reminder, the GI50 is the concentration at which growth is held to half of that of the control. The term AUC(0-inf) denotes total exposure, with the tail of the curve extrapolated. The low end stands for less exposure, the high end for more exposure. The AUC(0-t) is the area under the concentration-time curve up to a stated or last time point. Low values mean low exposure, high ones high exposure. Broadly, the half-life is the time in which the quantity being followed falls by half. Low readings indicate fast loss, high ones slow loss. What is called Cmax is the highest concentration seen after dosing. In general, Tmax refers to the time at which the peak concentration occurs. Usually bioavailability stands for the share of a dose that reaches the circulation, judged against a reference dose that is usually intravenous. Read a high bioavailability as much systemic uptake.

“Also recorded” adds a separate entry of the source. Read-outs that look alike come from different tables or passages of the source.

The record followed here is patent US9481669B2, “Pladienolide pyridine compounds and methods of use” (Eisai R&D Management Co., Ltd., priority 2014, dated 2016).

Data set [1] can be described thus: pH stability measurement (UPLC, 0.1 N HCl). The class given is physicochemical. The settings on record: 0.1 N HCl, pH 1, 24 hours. On the procedure: Compounds were provided in 96-well plates and tested in triplicate. Four microliters of a 10 mM stock solution of compound in DMSO were distributed into each of three wells. The plate was stored at or below −20° C. until the day of the analysis. Methanol (HPLC grade) and 0.1 N HCl (EMD catalog HX0603A-6) were used for dilutions. Acetonitrile (HPLC grade), water (Milli-Q filtered), trifluoroacetic acid (spectral grade) and 0.2M phosphate buffer (Wako, catalog no. 163-14471) were used to prepare the mobile phase for the two analyses.
Stability data was obtained using a Waters Acquity UPLC equipped with a UV detector (Waters TUV) and single quadrupole MS detector (Waters SQD). The 96-well plate containing the compound(s) of interest was(were) removed from the freezer and allowed to warm to room temperature for one hour. The UPLC was primed, equilibrated and the system performance was verified by injecting a standard. After 1 hour, each of the three wells was diluted with 266 μL 0.1 N HCl to give pH=1. The plate was covered and placed on a shaker (Eppindorf Thermomixer R) for 45 minutes at 600 rpm. The plate was removed from the shaker, and the contents of each well were filtered through a filtration plate (Millipore catalog no. MSSLBPC50) by vacuum and injected into the UPLC. After approximately 24 hours, the contents of the wells were re-injected into the UPLC.
Stability in the various buffers was measured by comparing the peak area- % of the analyte in methanol versus the peak area- % of the analyte at the same retention time in 0.1 N HCl buffer in the 24 hr time point injection.

Data set [2] concerns Panc 05.04 cells (mt SF3B1; Q699H and K700E mutations in SF3B1). Put plainly: Cell viability assay (CellTiter-Glo, 72 hr), Panc 05.04. The class given is cell-based. As to conditions: for GI50 / Emax: Panc 05.04, 72 hr; for Emax: negative value indicates cellular lethality. As for the experimental part: (§1) Cells (WiDr and Panc05.04 obtained from ATCC) were seeded in 96-well plates, with 2000 cells/100 μL/well, and incubated overnight. Spent media was removed, and fresh media containing 9 different concentrations of compound (100 μL/well) were added, with DMSO concentration from compound stock solution adjusted to be 0.1%. Each compound treatment was done in duplicate or triplicate at each concentration.
(§2) Another plate with cells seeded was dedicated as a time zero (Tz) plate, to which was added 0.1% DMSO in media (100 μL/well) followed by CellTiter-Glo® reagent (Promega Corporation, Madison, Wis.) (50 μL/well) for ATP measurement as a surrogate of cell viability. Average value from measurement of multiple wells of this plate is used as Tz.
(§3) Compound-treated plates were incubated for 72 hr at 37° C. Then, CellTiter-Glo® reagent (50 μL/well) was added and ATP was measured. Average value from measurement of the duplicate or triplicate compound-treated wells is used as Ti, and seeded plates with medium having 0.1% DMSO without compound is used as control growth (C).
(§4) Percentage growth inhibition/Percentage viability was calculated as: [(Ti−Tz)/(C−Tz)]×100 for concentrations for which Ti>/=Tz [(Ti−Tz)/Tz]×100 for concentrations for which Ti<Tz. *time zero (Tz), control growth (C), and test growth in the presence of compound (Ti) Percentage growth inhibition/Percentage viability are plotted versus compound concentration to determine Emax.
(§5) Growth inhibition of 50% (GI50) was calculated from [(Ti−Tz)/(C−Tz)]×100=50, which is the drug concentration resulting in a 50% reduction in the net increase of ATP in control growth (C) during the compound treatment.
Emax refers to the maximum achievable response to a compound in a tested dose range, with a negative value indicating cellular lethality. A larger negative Emax value indicates greater cellular lethality for a particular compound.
In general terms: ATP-based viability assays read luminescence as a measure of living cells.

Data set [3] has as its system WiDr cells (colon cancer cells, wildtype SF3B1). Nature of the data set: Cell viability assay (CellTiter-Glo, 72 hr), WiDr. As to conditions: Homo sapiens. The class given is cell-based. On the procedure:
as §1, §2, §3, §4, §5
(§6) The counter-screening of compounds in this viability assay with a “resistant” WiDr-R cell line may indicate whether these compounds have off-target effect(s).

For data set [4], the system named is WiDr-R cells (colon cancer cells, SF3B1 R1074H mutation). Nature of the data set: Cell viability assay (CellTiter-Glo, 72 hr), WiDr-R counter-screen. The class given is cell-based. As for the experimental part: as §1, §2, §3, §4, §5, §6
The nature of data set [5]: Mouse pharmacokinetic (PK) study. The class given is in vivo, CD-1 mice. The settings on record: for oral bioavailability and pharmacokinetic properties (in words): mouse model, IV and PO dosing; for Vd: read-out: Vss. As for the experimental part:
Compound 2 was dosed at 5 mg/kg IV (intravenous) or 10 mg/kg PO (oral administration) to CD-1 mice. Following administration, blood samples were collected at pre-determined time points from five mice via serial bleeding of the tail vein. Blood was collected at 0.083 (0.167 PO only), 0.5, 1, 2, 4, 6, 8, and 24 hours post administration. The blood samples were centrifuged at 5000 RPM for 5 minutes to collect plasma within 30 minutes of blood collection. After extraction, samples were assayed using LCMS. PK parameters were calculated using non-compartmental analysis in WinNonlin v6.3.
Compound 1 was dosed at 5 mg/kg IV or 12 mg/kg PO to CD-1 mice. Following administration, blood samples were collected at pre-determined time points from five mice via serial bleeding from the tail vein. Blood was collected at 0.083 (0.167 PO only), 0.5, 1, 2, 4, 6, 8, and 24 hours post-dose. The blood samples were centrifuged at 5000 RPM for 5 minutes to collect plasma within 30 minutes of blood collection. After extraction, samples were assayed using LCMS. PK parameters were calculated using non-compartmental analysis in WinNonlin v6.3.
Compound 3 was dosed at 5.964 mg/kg IV or 13.307 mg/kg PO to CD-1 mice. Following administration, blood samples were collected at pre-determined time points from five mice via serial bleeding from the tail vein. Blood was collected at 0.083 (0.167 PO only), 0.5, 1, 2, 4, 6, 8, and 24 hours post-dose. The blood samples were centrifuged at 5000 RPM for 5 minutes to collect plasma within 30 minutes of blood collection. After extraction, samples were assayed using LCMS. PK parameters were calculated using non-compartmental analysis in WinNonlin v6.3.
Compound 4 was dosed at 5 mg/kg IV or 10 mg/kg PO to CD-1 mice. Following administration, blood samples were collected at pre-determined time-points from five mice via serial bleeding from the tail vein. Blood was collected at 0.083 (0.167 PO only), 0.5, 1, 2, 4, 6, 8, and 24 hours post-dose. The blood samples will be centrifuged at 5000 RPM for 5 minutes to collect plasma within 30 minutes of blood collection. After extraction, samples were assayed using LCMS. PK parameters were calculated using non-compartmental analysis in WinNonlin v6.3.

Where [6] appears, read: CD-1 mice, 10 mg/kg PO (Table 7).
Where [7] appears, read: mouse, plasma, CD-1 mice, 5 mg/kg IV (Table 7).
The mark [8] stands for this setting: mouse, plasma, CD-1 mice, 10 mg/kg PO (Table 7).
The mark [9] stands for this setting: mouse, plasma, CD-1 mice, 5 mg/kg IV (Table 5).
[10] abbreviates: mouse, plasma, CD-1 mice, 12 mg/kg PO.

On to `C/C(=C\C=C\[C@@H](C)c1ccccn1)[C@H]1OC(=O)C[C@H](O)CC[C@@](C)(O)[C@@H](OC(=O)N2CCC(N3CCCCC3)CC2)/C=C/[C@@H]1C` [Compound 4, (2S,3 S,6S,7R,10R,E)-7,10-dihydroxy-3,7-dimethyl-12-oxo-2-((R,2E,4E)-6-(pyridin-2-yl)hepta-2,4-dien-2-yl)oxacyclododec-4-en-6-yl[1,4′-bipiperidine]-1′-carboxylate], for which the “% parent remaining (pH = 1, 24 hours)” value in data set [1] came to 99%. For the same molecule, in data set [2], the GI50 came to 11.8 nM and the Emax is -86.2%. In data set [3], this molecule gave a 50% growth inhibitory concentration (GI50) of 13 nM. Further, the 50% growth inhibitory concentration (GI50) in data set [4] is > 1000 nM. Further, the AUC0-inf/D in data set [5] (CD-1 mice, 5 mg/kg IV (Table 7)) was 1.325 ug/mL * hr/D. Moreover, in data set [5] (setting [6]), the AUC0-inf/D is listed as 0.795 ug/mL * hr/D and the “BA (%)” value is listed as 60.024%. In addition, the “oral bioavailability and pharmacokinetic properties (in words)” value in data set [5] is “showed oral bioavailability and favorable pharmacokinetic properties; also recorded: possess oral bioavailability and favorable pharmacokinetic properties”. In data set [5] (setting [7]), the AUC(0-inf) came to 6620 ng·h/mL, the exposure AUC(0-t) came to 6610 ng·h/mL, the half-life was 3.01 h and the Vd stood at 1.89 L/kg. The clearance in data set [5] (mouse, plasma, CD-1 mice, 5 mg/kg IV (Table 7), read-out: CLtot (converted)) is 12.6 mL/min/kg. In addition, in data set [5] (setting [8]), the AUC(0-inf) stood at 7950 ng·h/mL, the AUC(0-t) worked out at 7910 ng·h/mL, the highest level (Cmax) was 1250 ng/mL and the Tmax was determined as 2 h. For the same molecule, in data set [5] (setting [8]), the half-life is 2.98 h.
`C/C(=C\C=C\[C@@H](C)c1ccccn1)[C@H]1OC(=O)C[C@H](O)CC[C@@](C)(O)[C@@H](OC(=O)N2CCN(C3CCCCCC3)CC2)/C=C/[C@@H]1C` [Compound 1, (2S,3S,6S,7R,10R,E)-7,10-dihydroxy-3,7-dimethyl-12-oxo-2-((R,2E,4E)-6-(pyridin-2-yl)hepta-2,4-dien-2-yl)oxacyclododec-4-en-6-yl 4-cycloheptylpiperazine-1-carboxylate]: the “% parent remaining (pH = 1, 24 hours)” value in data set [1] was 91%. In addition, in data set [2], the GI50 was determined as 19.5 nM and the Emax is -86.8%. Besides, the “cellular lethality (Emax comparison)” value in data set [2] (Panc 05.04 cells) was “greater cellular lethality than Compound 2”. This molecule registered a GI50 in data set [3] of 15.8 nM. The GI50 in data set [4] is > 1000 nM. For the same molecule, in data set [5] (CD-1 mice, 5 mg/kg IV (Table 5)), the AUC0-inf/D is 934.15 ng · h/mL/D. In data set [5] (CD-1 mice, 12 mg/kg PO), this molecule showed an AUC0-inf/D of 487.06 ng · h/mL/D and a Cmax/D of 141.47 ng/mL/D. The “oral bioavailability and pharmacokinetic properties (in words)” value in data set [5] was “showed oral bioavailability and favorable pharmacokinetic properties; also recorded: possess oral bioavailability and favorable pharmacokinetic properties”. Moreover, in data set [5] (setting [9]), the total exposure AUC(0-inf) was determined as 4670 ng·h/mL, the exposure AUC(0-t) came to 4450 ng·h/mL, the half-life was 2.54 h and the Vd was found to be 2.1 L/kg. Further, the clearance in data set [5] (mouse, plasma, CD-1 mice, 5 mg/kg IV (Table 5), read-out: CL (converted)) is 17.8 mL/min/kg. Moreover, in data set [5] (setting [10]), the total exposure AUC(0-inf) was found to be 6230 ng·h/mL, the area under the curve AUC(0-t) came to 6210 ng·h/mL, the Cmax was 1810 ng/mL and the Tmax was found to be 0.5 h. In data set [5] (setting [10]), this molecule gave a bioavailability of 52.1% and a half-life of 3 h.
